According to patent publication US20260207761A1, “USE OF DRUG CONJUGATE IN TREATMENT OF TUMOR DISEASE AND METHOD” (priority 2023, published 2026):
Like-named read-outs stand apart in the source and are kept apart here.

Legend:
[1] = for exposure to toxin molecules: 50 mg/kg, after the last administration
[2] = Trial Example 4: pharmacokinetic study, dose-escalation cohort
[3] = conjugate A 25 mg/kg, female, Day 1
[4] = conjugate A 25 mg/kg, female, Day 43
[5] = conjugate A 25 mg/kg, male, Day 1
[6] = conjugate A 25 mg/kg, male, Day 43
[7] = conjugate A 50 mg/kg, female, Day 1
[8] = conjugate A 50 mg/kg, female, Day 43
[9] = conjugate A 50 mg/kg, male, Day 1
[10] = conjugate A 50 mg/kg, male, Day 43
[11] = conjugate A 75 mg/kg, female, Day 1
[12] = conjugate A 75 mg/kg, female, Day 43
[13] = conjugate A 75 mg/kg, male, Day 1
[14] = conjugate A 75 mg/kg, male, Day 43

SMILES: CC[C@@]1(O)C(=O)OCc2c1cc1n(c2=O)Cc2c-1nc1ccccc1c2CCN(C(C)C)S(C)(=O)=O [toxins]
- exposure to toxin molecules ([1]; female monkeys): 5.86 µg·h/mL
- exposure to toxin molecules ([1]; male monkeys): 3.85 µg·h/mL
- AUClast of toxins [1, 3]: 1.43 µg·h/mL
- Cmax of toxins [1, 3]: 38.3 ng/mL
- AUClast of toxins [1, 4]: 1.86 µg·h/mL
- Cmax of toxins [1, 4]: 65.1 ng/mL
- AUClast of toxins [1, 5]: 1.79 µg·h/mL
- Cmax of toxins [1, 5]: 49.0 ng/mL
- AUClast of toxins [1, 6]: 2.57 µg·h/mL
- Cmax of toxins [1, 6]: 64.5 ng/mL
- AUClast of toxins [1, 7]: 3.97 µg·h/mL
- Cmax of toxins [1, 7]: 113 ng/mL
- AUClast of toxins [1, 8]: 3.85 µg·h/mL
- Cmax of toxins [1, 8]: 127 ng/mL
- AUClast of toxins [1, 9]: 4.49 µg·h/mL
- Cmax of toxins [1, 9]: 94.0 ng/mL
- AUClast of toxins [1, 10]: 5.86 µg·h/mL
- Cmax of toxins [1, 10]: 146 ng/mL
- AUClast of toxins [1, 11]: 5.12 µg·h/mL
- Cmax of toxins [1, 11]: 132 ng/mL
- AUClast of toxins [1, 12]: 4.68 µg·h/mL
- Cmax of toxins [1, 12]: 137 ng/mL
- AUClast of toxins [1, 13]: 5.42 µg·h/mL
- Cmax of toxins [1, 13]: 132 ng/mL
- AUClast of toxins [1, 14]: 4.08 µg·h/mL
- Cmax of toxins [1, 14]: 110 ng/mL
- plasma exposure of the free payload, AUC, relative to conjugate A ([2]; first 4-week period): ~5%
- plasma exposure of the free payload, Cmax, relative to conjugate A ([2]; first 4-week period): about 6%
- half-life ([2]; patients, biweekly dosing regimen): ~49 h
